Test results reported in patent US20090062369A1, “USE OF SECRETORY PHOSPHOLIPASE A2 (SPLA2) INHIBITORS TO DECREASE SPLA2 LEVELS” (priority 2007, published 2009).

Tested on: serum sPLA2
Test: Effect of twice-a-day oral A-002 on serum sPLA2 levels in subjects with stable coronary artery disease (Example 6)
Type: in vivo, human
Method: The protocol for preparing standard curve, test, and quality control samples for use in the assay disclosed herein is set forth in Example 5. Samples are prepared according to this protocol, then loaded in duplicate onto a plate (Cayman catalog no. 485002 or equivalent) that has been pre-coated with a monoclonal sPLA2 antibody (“capture antibody”) that specifically binds sPLA2. In certain embodiments, the capture antibody may interact with a specific form of sPLA2, such as for example sPLA2 type IIA.
sPLA2 acetylcholinesterase:Fab′ conjugate (AChE:Fab′) (“conjugate”) (Cayman catalog no. 485000 or equivalent) is reconstituted in EIA buffer (Cayman catalog no. 400060 or equivalent). Cayman EIA buffer is 1M phosphate, pH 7.0, 1% BSA, 4M NaCl, 10 mM EDTA, and 0.1% sodium azide. Reconstituted conjugate is added to each well of the plate. The conjugate binds a different sPLA2 epitope than the capture antibody, allowing the capture antibody and the conjugate to form a “sandwich” that is immobilized on the plate. Excess reagents are washed away, and the plate is covered and incubated overnight at 2-8° C.
Prior to development, the wells are washed five to six times with wash buffer (Cayman catalog no. 400062 or equivalent). To develop the plate, Ellman's Reagent (Cayman catalog no. 400050 or equivalent) is reconstituted in water and added to each well according to manufacturer instructions. The reconstituted Ellman's Reagent must be used the same day it is prepared because it is unstable. Ellman's Reagent contains an AChE substrate. Specifically, Ellman's Reagent contains acetylthiocholine and 5,5′-dithio-bis-(2-nitrobenzoic acid). Hydrolysis of acetylthiocholine by acetylcholinesterase produces thiocholine, which reacts with 5,5′-dithio-bis-(2-nitrobenzoic acid) to produce 5-thio-2-nitrobenzoic acid. 5-thio-2-nitrobenzoic acid has a strong absorbance at 412 nm. The intensity of absorbance at this wavelength is directly proportional to the concentration of bound conjugate, which is in turn is directly proportional to the concentration of sPLA2 present (Absorbance a [AChE:Fab′ conjugate] α [sPLA2]). During the development step, the plate is shaken, preferably in the dark. In certain embodiments the development time for the assay is 0.5 to 3 hours, preferably 1 to 1.5 hours. At the end of the development period, the high sPLA2 standards should have greater yellow color development than the zero standards. Absorbance of each well is measured at 400-420 nm using a micro-well plate reader. In certain embodiments, absorbance is measured at about 405 nm.
Absorbance readings for duplicate wells are averaged, and the relative standard deviation and % CV are calculated. Standard curve data are used to generate a four parameter curve, and quality control and test samples are measured against the appropriate standard curve (i.e., the standard curve with the same serum content). In order for a test to be considered valid, variation between duplicate wells should be no more than about 25%, and negative controls (blanks) for each standard curve should have a mean absorbance of less than about 0.3.
The method disclosed herein for measuring sPLA2 levels in serum was utilized to determine the effect of administering certain sPLA2 inhibitors on sPLA2 levels in 84 human subjects. The subjects included 24 subjects with diabetes, 32 subjects with metabolic syndrome, and 75 subjects receiving statin treatment. Subjects were administered the sPLA2 inhibitor A-002, a prodrug form of A-001, twice a day at varying dosages from 50 to 500 mg. The structures of A-002and A-001 are set forth below. At two weeks and four weeks after the first administration, sPLA2 levels were measured and compared to pre-administration baseline levels.
84 subjects with stable coronary artery disease were randomized to receive placebo or A-002 via oral administration twice a day over a four week administration period. […]

[1] = 500 mg, non-diabetes subgroup of ITT population
[2] = 500 mg, statin subgroup of ITT population
[3] = A-002 (50 mg), ITT subjects exhibiting at least 3 out of 5 metabolic syndrome criteria
[4] = A-002 (50 mg), non-statin subgroup of ITT population
[5] = A-002 (100 mg), ITT subjects exhibiting at least 3 out of 5 metabolic syndrome criteria
[6] = A-002 (100 mg), non-statin subgroup of ITT population
[7] = A-002 (250 mg), ITT subjects exhibiting at least 3 out of 5 metabolic syndrome criteria
[8] = A-002 (250 mg), non-statin subgroup of ITT population
[9] = A-002 (500 mg), ITT subjects exhibiting at least 3 out of 5 metabolic syndrome criteria

CCc1c(C(=O)C(N)=O)c2c(OCC(=O)OC)cccc2n1Cc1ccccc1 [A-002, [[3-(2-Amino-1,2-dioxoethyl)-2-ethyl-1-(phenylmethyl)-1H-indol-4-yl]oxy]acetic acid methyl ester]
sPLA2 level, Week 2, Range [1]: 0.05 to 0.50 ng/mL
sPLA2 level, Week 4, Mean [1]: 0.13 ng/mL
sPLA2 level, Week 4, Median [1]: 0.05 ng/mL
sPLA2 level, Week 4, Range [1]: 0.05 to 0.40 ng/mL
sPLA2 Change from baseline at week 2, Mean [2]: -2.93 ng/mL
sPLA2 Change from baseline at week 2, Median [2]: -3.30 ng/mL
sPLA2 Change from baseline at week 2, Range [2]: -4.80 to -0.55 ng/mL
sPLA2 Change from baseline at week 4, Mean [2]: -2.99 ng/mL
sPLA2 Change from baseline at week 4, Median [2]: -3.50 ng/mL
sPLA2 Change from baseline at week 4, Range [2]: -4.80 to -0.55 ng/mL
sPLA2 level, Baseline, Mean [2]: 3.05 ng/mL
sPLA2 level, Baseline, Median [2]: 3.00 ng/mL
sPLA2 level, Baseline, Range [2]: 0.60 to 5.40 ng/mL
sPLA2 level, Week 2, Mean [2]: 0.20 ng/mL
sPLA2 level, Week 2, Median [2]: 0.10 ng/mL
sPLA2 level, Week 2, Range [2]: 0.05 to 0.60 ng/mL
sPLA2 level, Week 4, Mean [2]: 0.14 ng/mL
sPLA2 level, Week 4, Median [2]: 0.05 ng/mL
sPLA2 level, Week 4, Range [2]: 0.05 to 0.60 ng/mL
sPLA2 level, Baseline, Mean [3]: 3.47 ng/mL
sPLA2 level, Baseline, Median [3]: 2.70 ng/mL
sPLA2 level, Baseline, Range [3]: 0.80 to 8.80 ng/mL
sPLA2 level, Change from baseline at week 2, Mean [3]: -2.89 ng/mL
sPLA2 level, Change from baseline at week 2, Median [3]: -2.50 ng/mL
sPLA2 level, Change from baseline at week 2, Range [3]: -5.30 to -0.60 ng/mL
sPLA2 level, Change from baseline at week 4, Mean [3]: -2.76 ng/mL
sPLA2 level, Change from baseline at week 4, Median [3]: -2.15 ng/mL
sPLA2 level, Change from baseline at week 4, Range [3]: -6.40 to -0.60 ng/mL
sPLA2 level, Week 2, Mean [3]: 0.96 ng/mL
sPLA2 level, Week 2, Median [3]: 0.30 ng/mL
sPLA2 level, Week 2, Range [3]: 0.20 to 4.00 ng/mL
sPLA2 level, Week 4, Mean [3]: 0.81 ng/mL
sPLA2 level, Week 4, Median [3]: 0.65 ng/mL
sPLA2 level, Week 4, Range [3]: 0.10 to 2.40 ng/mL
sPLA2 level, Baseline, Mean [4]: 1.80 ng/mL
sPLA2 level, Baseline, Median [4]: 1.80 ng/mL
sPLA2 level, Baseline, Range [4]: 1.80 to 1.80 ng/ml
sPLA2 level, Baseline, Mean [5]: 2.97 ng/mL
sPLA2 level, Baseline, Median [5]: 2.20 ng/mL
sPLA2 level, Baseline, Range [5]: 0.05 to 6.00 ng/mL
sPLA2 level, Change from baseline at week 2, Mean [5]: -1.01 ng/mL
sPLA2 level, Change from baseline at week 2, Median [5]: -1.80 ng/mL
sPLA2 level, Change from baseline at week 2, Range [5]: −3.30 to +2.85 ng/ml
sPLA2 level, Change from baseline at week 4, Mean [5]: -2.78 ng/mL
sPLA2 level, Change from baseline at week 4, Median [5]: -2.70 ng/mL
sPLA2 level, Change from baseline at week 4, Range [5]: -5.70 to 0.00 ng/mL
sPLA2 level, Week 2, Mean [5]: 1.20 ng/mL
sPLA2 level, Week 2, Median [5]: 0.80 ng/mL
sPLA2 level, Week 2, Range [5]: 0.30 to 2.90 ng/mL
sPLA2 level, Week 4, Mean [5]: 0.41 ng/mL
sPLA2 level, Week 4, Median [5]: 0.30 ng/mL
sPLA2 level, Week 4, Range [5]: 0.05 to 1.00 ng/mL
sPLA2 level, Baseline, Mean [6]: 3.85 ng/mL
sPLA2 level, Baseline, Median [6]: 3.85 ng/mL
sPLA2 level, Baseline, Range [6]: 2.80 to 4.90 ng/mL
sPLA2 level, Change from baseline at week 2, Mean [6]: -1.90 ng/mL
sPLA2 level, Change from baseline at week 2, Median [6]: -1.90 ng/mL
sPLA2 level, Change from baseline at week 2, Range [6]: −1.90 to −1.90 ng/ml
sPLA2 level, Change from baseline at week 4, Mean [6]: -3.05 ng/mL
sPLA2 level, Change from baseline at week 4, Median [6]: -3.05 ng/mL
sPLA2 level, Change from baseline at week 4, Range [6]: -4.40 to -1.70 ng/mL
sPLA2 level, Week 2, Mean [6]: 0.90 ng/mL
sPLA2 level, Week 2, Median [6]: 0.90 ng/mL
sPLA2 level, Week 2, Range [6]: 0.90 to 0.90 ng/ml
sPLA2 level, Week 4, Mean [6]: 0.80 ng/mL
sPLA2 level, Week 4, Median [6]: 0.80 ng/mL
sPLA2 level, Week 4, Range [6]: 0.50 to 1.10 ng/mL
sPLA2 level, Baseline, Mean [7]: 2.90 ng/mL
sPLA2 level, Baseline, Median [7]: 2.20 ng/mL
sPLA2 level, Baseline, Range [7]: 1.80 to 4.70 ng/mL
sPLA2 level, Change from baseline at week 2, Mean [7]: -1.65 ng/mL
sPLA2 level, Change from baseline at week 2, Median [7]: -1.65 ng/mL
sPLA2 level, Change from baseline at week 2, Range [7]: -1.90 to -1.40 ng/mL
sPLA2 level, Change from baseline at week 4, Mean [7]: -1.75 ng/mL
sPLA2 level, Change from baseline at week 4, Median [7]: -1.75 ng/mL
sPLA2 level, Change from baseline at week 4, Range [7]: -2.10 to -1.40 ng/mL
sPLA2 level, Week 2, Mean [7]: 0.33 ng/mL
sPLA2 level, Week 2, Median [7]: 0.30 ng/mL
sPLA2 level, Week 2, Range [7]: 0.30 to 0.40 ng/mL
sPLA2 level, Week 4, Mean [7]: 0.27 ng/mL
sPLA2 level, Week 4, Median [7]: 0.30 ng/mL
sPLA2 level, Week 4, Range [7]: 0.10 to 0.40 ng/mL
sPLA2 level, Baseline, Mean [8]: 3.40 ng/mL
sPLA2 level, Baseline, Median [8]: 3.40 ng/mL
sPLA2 level, Baseline, Range [8]: 3.40 to 3.40 ng/ml
sPLA2 level, Change from baseline at week 2, Mean [8]: -2.10 ng/mL
sPLA2 level, Change from baseline at week 2, Median [8]: -2.10 ng/mL
sPLA2 level, Change from baseline at week 2, Range [8]: −2.10 to −2.10 ng/ml
sPLA2 level, Change from baseline at week 4, Mean [8]: -2.20 ng/mL
sPLA2 level, Change from baseline at week 4, Median [8]: -2.20 ng/mL
sPLA2 level, Change from baseline at week 4, Range [8]: −2.20 to −2.20 ng/ml
sPLA2 level, Week 2, Mean [8]: 1.30 ng/mL
sPLA2 level, Week 2, Median [8]: 1.30 ng/mL
sPLA2 level, Week 2, Range [8]: 1.30 to 1.30 ng/ml
sPLA2 level, Week 4, Mean [8]: 1.20 ng/mL
sPLA2 level, Week 4, Median [8]: 1.20 ng/mL
sPLA2 level, Week 4, Range [8]: 1.20 to 1.20 ng/ml
sPLA2 level, Baseline, Mean [9]: 3.05 ng/mL
sPLA2 level, Baseline, Median [9]: 3.40 ng/mL
sPLA2 level, Baseline, Range [9]: 1.20 to 4.40 ng/mL
sPLA2 level, Change from baseline at week 2, Mean [9]: -2.94 ng/mL
sPLA2 level, Change from baseline at week 2, Median [9]: -3.50 ng/mL
sPLA2 level, Change from baseline at week 2, Range [9]: -4.00 to -1.15 ng/mL
sPLA2 level, Change from baseline at week 4, Mean [9]: -3.04 ng/mL
sPLA2 level, Change from baseline at week 4, Median [9]: -3.70 ng/mL
sPLA2 level, Change from baseline at week 4, Range [9]: -4.35 to -1.15 ng/mL
sPLA2 level, Week 2, Mean [9]: 0.16 ng/mL
sPLA2 level, Week 2, Median [9]: 0.05 ng/mL
sPLA2 level, Week 2, Range [9]: 0.05 to 0.40 ng/mL
sPLA2 level, Week 4, Mean [9]: 0.06 ng/mL
sPLA2 level, Week 4, Median [9]: 0.05 ng/mL
